Assays:
[1] = xn = mol fraction of the nth substance listed; details: 100 kPa, Liquid; for speed of sound: Frequency=3 MHz, Sing-around technique in a fixed-path interferometer; for mass density: Vibrating tube method
[2] = excess molar enthalpy (molar enthalpy of mixing); xn = mol fraction of the nth substance listed; details: 298.15 K, 100 kPa, Liquid, Power-compensation calorimetry

CCCCn1cc[n+](C)c1C.F[B-](F)(F)F [1-butyl-2,3-dimethylimidazolium tetrafluoroborate] + CCCCn1cc[n+](C)c1.F[B-](F)(F)F
[1]
Details	mass density, 293.15 K [kg/m3]	mass density, 298.15 K [kg/m3]	mass density, 303.15 K [kg/m3]	mass density, 308.15 K [kg/m3]	speed of sound, 293.15 K [m/s]	speed of sound, 298.15 K [m/s]	speed of sound, 303.15 K [m/s]	speed of sound, 308.15 K [m/s]
x1 = 0.0917	1198.6	1195.3	1192.4	1189.4	1587.2	1574.1	1562.2	1550
x1 = 0.1281	1197.1	1194	1191.4	1188.6	1590.7	1577.4	1565.4	1553.1
x1 = 0.1633	1195.8	1193	1190.4	1187.9	1594	1580.6	1568.4	1556
x1 = 0.2059	1194.4	1191.8	1189.5	1187.1	1597.8	1584.3	1572	1559.5
x1 = 0.2455	1193.3	1190.9	1188.6	1186.4	1601.3	1587.7	1575.3	1562.7
x1 = 0.2967	1192.2	1189.9	1187.8	1185.7	1605.7	1591.9	1579.5	1566.8
x1 = 0.3424	1191.3	1189.2	1187.1	1185.2	1609.5	1595.7	1583.1	1570.4
x1 = 0.3974	1190.6	1188.6	1186.6	1184.8	1613.9	1600.1	1587.4	1574.6
x1 = 0.4496	1190.2	1188.3	1186.3	1184.6	1618.1	1604.1	1591.5	1578.6
x1 = 0.4997	1190	1188.2	1186.2	1184.5	1622	1608	1595.2	1582.4
x1 = 0.5418	1190	1188.2	1186.2	1184.5	1625.2	1611.2	1598.4	1585.5
x1 = 0.5941	1190.1	1188.3	1186.4	1184.7	1629.1	1615.1	1602.2	1589.4
x1 = 0.6398	1190.3	1188.5	1186.7	1184.9	1632.5	1618.5	1605.6	1592.9
x1 = 0.6873	1190.6	1188.9	1187	1185.3	1636	1622	1609.1	1596.3
x1 = 0.7388	1191	1189.3	1187.4	1185.7	1639.9	1625.9	1612.9	1600.1
x1 = 0.7963	1191.6	1189.9	1187.9	1186.1	1644.1	1630.1	1617.1	1604.4
x1 = 0.8482	1192.1	1190.4	1188.4	1186.5	1648	1634	1621	1608.4
x1 = 0.8903	1192.6	1190.8	1188.7	1187	1651.2	1637.2	1624.2	1611.4
x1 = 1	1193.5	1191.8	1189.7	1187.9	1659.7	1645.7	1632.5	1619.8

[2]
Details	excess molar enthalpy [kcal/mol]
x1 = 0.0861	0.00327
x1 = 0.1386	0.00523
x1 = 0.1972	0.00734
x1 = 0.2455	0.00889
x1 = 0.2945	0.0104
x1 = 0.3428	0.0114
x1 = 0.3917	0.0121
x1 = 0.4457	0.0125
x1 = 0.5019	0.0125
x1 = 0.5637	0.0117
x1 = 0.6097	0.0109
x1 = 0.6637	0.00963
x1 = 0.7076	0.00858
x1 = 0.7611	0.00691
x1 = 0.8042	0.00564
x1 = 0.8462	0.00437
x1 = 0.8827	0.00325
x1 = 0.9144	0.0023

CCCCn1cc[n+](C)c1C.F[B-](F)(F)F [1-butyl-2,3-dimethylimidazolium tetrafluoroborate] + CCn1cc[n+](C)c1.F[B-](F)(F)F
[1]
Details	mass density, 293.15 K [kg/m3]	mass density, 298.15 K [kg/m3]	mass density, 303.15 K [kg/m3]	mass density, 308.15 K [kg/m3]	speed of sound, 293.15 K [m/s]	speed of sound, 298.15 K [m/s]	speed of sound, 303.15 K [m/s]	speed of sound, 308.15 K [m/s]
x1 = 0.0952	1270.9	1267.3	1264.1	1260.5	1636.2	1624.1	1611.9	1600.4
x1 = 0.1386	1265.5	1262.1	1259	1255.6	1638.2	1626	1613.7	1602.1
x1 = 0.1754	1261.2	1257.9	1255	1251.7	1639.8	1627.4	1615.1	1603.4
x1 = 0.2361	1254.5	1251.5	1248.7	1245.7	1642.2	1629.6	1617.2	1605.3
x1 = 0.2819	1249.8	1247	1244.3	1241.4	1643.8	1631.1	1618.5	1606.6
x1 = 0.3347	1244.7	1242.1	1239.5	1236.7	1645.4	1632.5	1619.9	1607.9
x1 = 0.3722	1241.3	1238.8	1236.3	1233.6	1646.5	1633.5	1620.8	1608.7
x1 = 0.4192	1237.2	1234.9	1232.4	1229.9	1647.7	1634.6	1621.8	1609.7
x1 = 0.4451	1235.1	1232.8	1230.4	1227.9	1648.3	1635.1	1622.4	1610.2
x1 = 0.4807	1232.2	1230	1227.7	1225.2	1649.1	1635.8	1623	1610.8
x1 = 0.5327	1228.2	1226.1	1223.8	1221.4	1650.2	1636.8	1623.9	1611.7
x1 = 0.5785	1224.8	1222.8	1220.5	1218.2	1651	1637.6	1624.7	1612.4
x1 = 0.6364	1220.6	1218.7	1216.4	1214.2	1652.1	1638.5	1625.6	1613.2
x1 = 0.6729	1218	1216.1	1213.9	1211.7	1652.7	1639.1	1626.1	1613.7
x1 = 0.7342	1213.7	1211.8	1209.7	1207.6	1653.8	1640.1	1627.1	1614.6
x1 = 0.7738	1210.9	1209	1206.9	1204.9	1654.5	1640.8	1627.7	1615.2
x1 = 0.8254	1207.2	1205.4	1203.2	1201.3	1655.5	1641.7	1628.6	1616.1
x1 = 0.8739	1203.6	1201.8	1199.7	1197.8	1656.5	1642.7	1629.5	1616.9
x1 = 1	1193.5	1191.8	1189.7	1187.9	1659.7	1645.7	1632.5	1619.8

[2]
Details	excess molar enthalpy [kcal/mol]
x1 = 0.0907	-0.0636
x1 = 0.1357	-0.0796
x1 = 0.1849	-0.088
x1 = 0.2377	-0.0856
x1 = 0.2839	-0.0762
x1 = 0.3341	-0.0593
x1 = 0.3729	-0.0437
x1 = 0.4351	-0.0139
x1 = 0.4972	0.0184
x1 = 0.5483	0.0452
x1 = 0.5967	0.0684
x1 = 0.6417	0.0884
x1 = 0.6978	0.105
x1 = 0.7424	0.114
x1 = 0.7909	0.117
x1 = 0.8345	0.109
x1 = 0.8758	0.0958
x1 = 0.9035	0.0829

Reference: the NIST ThermoML archive (doi:10.1016/j.jct.2016.08.010)
